Test results as given in ChEMBL document CHEMBL4411260, “Dual Inhibition of TYK2 and JAK1 for the Treatment of Autoimmune Diseases: Discovery of (( S)-2,2-Difluorocyclopropyl)((1 R,5 S)-3-(2-((1-methyl-1 H-pyrazol-4-yl)amino)pyrimidin-4-yl)-3,8-diazabicyclo[3.2.1]octan-8-yl)methanone (PF-06700841)” (J Med Chem, 2018).

Assays:
physchem = details: octanol/water phosphate buffer, pH 7.4
JAK1/TYK2 [1] = molecular target: T1, JAK1/TYK2 (Homo sapiens, UniProt P23458+P29597)
[2] = Passive apparent permeability from apical to basolateral side in RRCK cells; format: ADME, cell-based, Canis lupus familiaris, MDCKII-LE; details: dog, MDCK
[3] = molecular target: T2, Tyrosine-protein kinase JAK2 (Homo sapiens, UniProt O60674)
T2 sequence (O60674 whole entry): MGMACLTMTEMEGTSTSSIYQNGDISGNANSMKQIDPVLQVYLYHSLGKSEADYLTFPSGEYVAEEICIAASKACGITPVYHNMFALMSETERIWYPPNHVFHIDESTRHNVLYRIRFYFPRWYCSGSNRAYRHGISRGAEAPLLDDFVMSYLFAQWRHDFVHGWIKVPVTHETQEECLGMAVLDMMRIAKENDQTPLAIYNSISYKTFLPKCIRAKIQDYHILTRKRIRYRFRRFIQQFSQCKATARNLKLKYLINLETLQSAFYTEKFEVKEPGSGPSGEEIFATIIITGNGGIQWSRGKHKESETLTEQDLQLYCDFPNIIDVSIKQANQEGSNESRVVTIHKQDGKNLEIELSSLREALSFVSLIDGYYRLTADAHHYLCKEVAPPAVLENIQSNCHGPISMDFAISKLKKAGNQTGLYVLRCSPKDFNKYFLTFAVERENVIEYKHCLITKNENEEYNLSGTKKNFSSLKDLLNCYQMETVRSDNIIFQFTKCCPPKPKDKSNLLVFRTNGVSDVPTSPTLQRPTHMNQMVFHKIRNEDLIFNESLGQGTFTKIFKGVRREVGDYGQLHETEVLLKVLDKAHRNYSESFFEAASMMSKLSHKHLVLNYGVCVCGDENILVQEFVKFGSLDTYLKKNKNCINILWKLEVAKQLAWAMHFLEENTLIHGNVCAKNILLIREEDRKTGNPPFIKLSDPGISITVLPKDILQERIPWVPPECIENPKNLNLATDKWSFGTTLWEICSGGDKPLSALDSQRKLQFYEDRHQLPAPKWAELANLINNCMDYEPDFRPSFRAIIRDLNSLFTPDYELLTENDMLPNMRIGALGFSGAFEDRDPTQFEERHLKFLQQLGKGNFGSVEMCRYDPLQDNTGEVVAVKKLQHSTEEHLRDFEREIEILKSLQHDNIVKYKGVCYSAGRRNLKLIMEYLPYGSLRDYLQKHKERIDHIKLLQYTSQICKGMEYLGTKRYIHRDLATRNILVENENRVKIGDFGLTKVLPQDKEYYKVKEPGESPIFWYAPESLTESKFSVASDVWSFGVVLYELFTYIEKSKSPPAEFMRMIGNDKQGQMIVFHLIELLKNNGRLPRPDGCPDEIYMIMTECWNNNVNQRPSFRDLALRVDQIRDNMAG

[4] = molecular target: T3, Tyrosine-protein kinase JAK3 (Homo sapiens, UniProt P52333); assay: Inhibition of human JAK3 using fluorescence labeled peptide as substrate and using ATP at its Km level by microfluidic based mobility shift assay
T3 sequence (P52333 whole entry): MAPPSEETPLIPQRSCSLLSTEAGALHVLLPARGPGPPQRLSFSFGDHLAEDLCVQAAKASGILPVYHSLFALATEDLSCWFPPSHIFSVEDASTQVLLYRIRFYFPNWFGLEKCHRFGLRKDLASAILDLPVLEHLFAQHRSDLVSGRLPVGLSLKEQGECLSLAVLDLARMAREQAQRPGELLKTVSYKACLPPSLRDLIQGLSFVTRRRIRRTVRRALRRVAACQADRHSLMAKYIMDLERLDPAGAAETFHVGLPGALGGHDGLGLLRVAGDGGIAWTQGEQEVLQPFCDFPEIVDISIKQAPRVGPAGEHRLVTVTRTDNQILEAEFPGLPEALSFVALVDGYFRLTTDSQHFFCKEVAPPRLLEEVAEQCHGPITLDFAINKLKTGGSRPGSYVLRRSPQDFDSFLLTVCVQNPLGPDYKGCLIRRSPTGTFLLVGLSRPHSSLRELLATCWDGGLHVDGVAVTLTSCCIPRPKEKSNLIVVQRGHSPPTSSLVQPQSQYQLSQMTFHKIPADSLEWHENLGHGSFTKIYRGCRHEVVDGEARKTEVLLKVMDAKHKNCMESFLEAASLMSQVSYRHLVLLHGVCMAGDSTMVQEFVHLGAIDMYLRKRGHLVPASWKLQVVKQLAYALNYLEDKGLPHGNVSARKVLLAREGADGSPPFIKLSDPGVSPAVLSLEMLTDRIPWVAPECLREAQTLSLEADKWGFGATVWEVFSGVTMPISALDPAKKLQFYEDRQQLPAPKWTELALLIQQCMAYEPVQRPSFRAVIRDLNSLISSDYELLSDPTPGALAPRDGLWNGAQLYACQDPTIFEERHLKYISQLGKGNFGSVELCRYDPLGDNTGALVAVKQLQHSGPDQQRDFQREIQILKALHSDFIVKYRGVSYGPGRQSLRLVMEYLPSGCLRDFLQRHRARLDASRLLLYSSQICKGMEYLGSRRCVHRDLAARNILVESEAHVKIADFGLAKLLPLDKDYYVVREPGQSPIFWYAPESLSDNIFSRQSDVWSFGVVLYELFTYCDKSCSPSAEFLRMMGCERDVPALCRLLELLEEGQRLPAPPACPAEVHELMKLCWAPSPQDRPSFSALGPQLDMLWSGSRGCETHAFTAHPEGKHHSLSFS

[5] = molecular target: T4, Tyrosine-protein kinase JAK1 (Homo sapiens, UniProt P23458); assay: Inhibition of human JAK1 using fluorescence labeled peptide as substrate and using ATP at its Km level by microfluidic based mobility shift assay
T4 sequence (P23458 whole entry): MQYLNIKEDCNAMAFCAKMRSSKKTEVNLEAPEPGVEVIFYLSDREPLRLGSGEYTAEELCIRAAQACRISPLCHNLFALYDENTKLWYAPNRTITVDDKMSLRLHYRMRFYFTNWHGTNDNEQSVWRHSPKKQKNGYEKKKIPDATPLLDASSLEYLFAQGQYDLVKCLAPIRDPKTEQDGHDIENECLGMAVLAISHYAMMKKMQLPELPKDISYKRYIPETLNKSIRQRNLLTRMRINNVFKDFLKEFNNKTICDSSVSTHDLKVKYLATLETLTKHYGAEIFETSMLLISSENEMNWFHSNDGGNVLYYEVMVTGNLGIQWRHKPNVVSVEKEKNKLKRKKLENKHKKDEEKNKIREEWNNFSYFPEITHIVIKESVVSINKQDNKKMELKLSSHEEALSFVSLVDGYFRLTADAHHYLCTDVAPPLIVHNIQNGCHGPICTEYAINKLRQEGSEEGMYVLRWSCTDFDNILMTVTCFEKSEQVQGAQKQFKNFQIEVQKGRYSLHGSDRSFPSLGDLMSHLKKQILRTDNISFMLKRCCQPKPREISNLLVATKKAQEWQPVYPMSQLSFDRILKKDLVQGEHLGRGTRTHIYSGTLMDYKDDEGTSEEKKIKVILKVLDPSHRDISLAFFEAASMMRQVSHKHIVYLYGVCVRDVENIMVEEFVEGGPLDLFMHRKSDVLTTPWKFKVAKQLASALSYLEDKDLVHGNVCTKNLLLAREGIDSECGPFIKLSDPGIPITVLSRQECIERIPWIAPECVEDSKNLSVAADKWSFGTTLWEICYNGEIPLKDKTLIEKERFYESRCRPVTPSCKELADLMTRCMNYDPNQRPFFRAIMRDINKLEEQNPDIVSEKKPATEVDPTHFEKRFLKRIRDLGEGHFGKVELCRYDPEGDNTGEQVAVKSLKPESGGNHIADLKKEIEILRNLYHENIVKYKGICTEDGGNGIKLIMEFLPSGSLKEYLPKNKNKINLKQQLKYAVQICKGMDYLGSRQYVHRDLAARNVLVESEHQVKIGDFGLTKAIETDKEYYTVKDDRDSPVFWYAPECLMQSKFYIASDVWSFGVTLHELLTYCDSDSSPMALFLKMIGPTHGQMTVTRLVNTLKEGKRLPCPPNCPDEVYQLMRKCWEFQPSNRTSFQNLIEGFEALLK

[6] = molecular target: T2, Tyrosine-protein kinase JAK2; assay: Inhibition of human JAK2 using fluorescence labeled peptide as substrate and using ATP at its Km level by microfluidic based mobility shift assay
[7] = molecular target: T5, Non-receptor tyrosine-protein kinase TYK2 (Homo sapiens, UniProt P29597); assay: Inhibition of human TYK2 using fluorescence labeled peptide as substrate and using ATP at its Km level by microfluidic based mobility shift assay
T5 sequence (P29597 whole entry): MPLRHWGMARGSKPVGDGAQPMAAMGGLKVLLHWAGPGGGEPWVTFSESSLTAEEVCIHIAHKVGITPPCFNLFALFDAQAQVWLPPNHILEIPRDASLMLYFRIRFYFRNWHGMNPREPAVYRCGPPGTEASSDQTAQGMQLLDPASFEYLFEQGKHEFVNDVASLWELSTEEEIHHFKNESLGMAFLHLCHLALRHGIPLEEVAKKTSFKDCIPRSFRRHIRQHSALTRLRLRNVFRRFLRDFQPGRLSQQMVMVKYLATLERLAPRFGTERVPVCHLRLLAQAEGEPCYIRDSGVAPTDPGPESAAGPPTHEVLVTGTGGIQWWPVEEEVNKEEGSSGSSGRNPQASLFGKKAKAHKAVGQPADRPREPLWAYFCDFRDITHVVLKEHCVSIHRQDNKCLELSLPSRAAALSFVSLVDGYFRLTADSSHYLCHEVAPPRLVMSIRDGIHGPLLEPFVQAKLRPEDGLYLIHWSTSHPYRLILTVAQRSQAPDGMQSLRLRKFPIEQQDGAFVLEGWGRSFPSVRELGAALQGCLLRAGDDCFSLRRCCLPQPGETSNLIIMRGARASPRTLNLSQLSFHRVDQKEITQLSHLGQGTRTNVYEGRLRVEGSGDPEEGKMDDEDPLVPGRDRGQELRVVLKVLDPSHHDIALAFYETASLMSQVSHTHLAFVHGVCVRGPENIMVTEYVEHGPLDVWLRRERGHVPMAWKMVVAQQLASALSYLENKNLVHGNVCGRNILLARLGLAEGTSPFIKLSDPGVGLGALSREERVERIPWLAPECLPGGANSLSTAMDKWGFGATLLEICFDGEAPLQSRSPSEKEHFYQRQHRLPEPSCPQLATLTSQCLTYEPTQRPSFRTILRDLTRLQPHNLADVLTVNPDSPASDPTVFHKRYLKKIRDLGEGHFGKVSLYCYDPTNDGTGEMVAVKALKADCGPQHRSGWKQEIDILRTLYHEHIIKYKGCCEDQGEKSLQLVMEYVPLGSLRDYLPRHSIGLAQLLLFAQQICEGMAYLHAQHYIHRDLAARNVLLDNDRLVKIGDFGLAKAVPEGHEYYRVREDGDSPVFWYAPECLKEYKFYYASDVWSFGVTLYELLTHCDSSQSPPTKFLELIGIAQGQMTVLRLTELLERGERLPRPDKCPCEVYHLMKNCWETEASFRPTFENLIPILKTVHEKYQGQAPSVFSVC

[8] = molecular target: T3, Tyrosine-protein kinase JAK3
[9] = molecular target: T5, Non-receptor tyrosine-protein kinase TYK2
[10] = molecular target: T2, Tyrosine-protein kinase JAK2; remark: listed apart in the source
[11] = molecular target: T4, Tyrosine-protein kinase JAK1
[12] = molecular target: T2, Tyrosine-protein kinase JAK2; remark: listed apart in the source
JAK1/TYK2 [13] = molecular target: T1, JAK1/TYK2; assay: Inhibition of JAK1/TYK2 signaling pathway in human lymphocytes of whole blood assessed as reduction in IFN-alpha induced STAT3 phosphorylation preincubated for 45 mins followed by IFN-alpha addition and measured measured after 15 mins by FACS assay; format: cell-based

T1 sequence (P23458 whole entry): as the sequence (P23458 whole entry) above
T1 sequence (P29597 whole entry): as the sequence (P29597 whole entry) above

logD (physchem)	fIC50 (JAK1/TYK2 [1]) [nM]	fIC50 [3] [nM]	IC50 [8] [nM]	IC50 [9] [nM]	IC50 [10] [nM]	IC50 [11] [nM]	Structure (SMILES)	also measured
0.9							CCNC(=O)c1ccc(Nc2nccc(N3C[C@H]4C[C@@H]3CN4C(=O)CC#N)n2)cc1	IC50 [4]: > 10000 nM; IC50 [5]: 7180 nM; IC50 [6]: > 4220 nM; IC50 [7]: 2690 nM
2.15							CCNC(=O)c1ccc(Nc2nccc(N3C[C@H]4C[C@@H](C3)N4C(=O)C3CC3)n2)cc1	
1.86							CCNC(=O)c1ccc(Nc2nccc(N3CC4CC[C@H](C3)N4C(=O)C3CC3)n2)cc1 (single isomer, unassigned)	
0.9			> 10000	774	> 9970	3710	CCNC(=O)c1ccc(Nc2nccc(N3C[C@@H]4C[C@H]3CN4C(=O)CC#N)n2)cc1	IC50 [4]: > 4950 nM; IC50 [5]: 358 nM; IC50 [6]: 366 nM; IC50 [7]: 23 nM
2.16			> 10000	148	2780	748	CCNC(=O)c1ccc(Nc2nccc(N3C[C@@H]4CC[C@H]3CN4C(=O)C3CC3)n2)cc1	
1.96			> 10000	1740	> 10000	> 9520	CCNC(=O)c1ccc(Nc2nccc(N3C[C@@H]4C[C@H]3CN4C(=O)C3CC3)n2)cc1	

Second part, the compound before the results:

Structure (SMILES)	logD (physchem)	fIC50 (JAK1/TYK2 [1]) [nM]	fIC50 [3] [nM]	IC50 [8] [nM]	IC50 [9] [nM]	IC50 [10] [nM]	IC50 [11] [nM]	also measured
O=C(C1CC1)N1C2CC[C@@H]1CN(c1nc(Nc3cnn(CCO)c3)ncc1F)C2 (single isomer, unassigned)	1.78	70	10					Papp A→B [2]: 5.6 to 18.8 ×10⁻⁶ cm/s
Cn1cc(Nc2nccc(N3CC4CC[C@H](C3)N4C(=O)[C@H]3CC3(F)F)n2)cn1 (single isomer, unassigned)	1.55							
Cn1cc(Nc2nccc(N3CC4CC[C@H](C3)N4C(=O)C3CC3)n2)cn1 (single isomer, unassigned)	1.52	91	11					
CCNC(=O)c1ccc(Nc2ncc(F)c(N3CC4CC[C@H](C3)N4C(=O)C3CC3)n2)cc1 (single isomer, unassigned)	2.88							
CCNC(=O)c1ccc(Nc2nccc(N3CCN(C(=O)CC#N)CC3)n2)cc1								IC50 [4]: 8740 nM; IC50 [5]: 3060 nM; IC50 [6]: 1080 nM; IC50 [7]: 368 nM
CCNC(=O)N1C2CC[C@@H]1CN(c1ccnc(Nc3cnn(C)c3)n1)C2 (single isomer, unassigned)	1.44	60	14					
CCNC(=O)c1ccc(Nc2ncc(F)c(N3CC4CC[C@H](C3)N4C(=O)C3CC3)n2)nc1 (single isomer, unassigned)	2.71			> 10000	7200	> 10000	> 10000	Papp A→B [2]: 5.6 to 18.8 ×10⁻⁶ cm/s
Cn1cc(Nc2ncc(F)c(N3CC4CC[C@H](C3)N4C(=O)C3CC3)n2)cn1 (single isomer, unassigned)	2.13	84	8	2880	53	488	76	IC50 [12]: 6280 nM; IC50 (JAK1/TYK2 [13]): 144 nM; Papp A→B [2]: 5.6 to 18.8 ×10⁻⁶ cm/s
Cn1cc(Nc2nccc(N3CC4CC[C@H](C3)N4C(=O)NCC#N)n2)cn1 (single isomer, unassigned)	0.97	73	28					Papp A→B [2]: 0.6 ×10⁻⁶ cm/s
CCNC(=O)c1ncc(Nc2ncc(F)c(N3CC4CC[C@H](C3)N4C(=O)C3CC3)n2)cc1C (single isomer, unassigned)	3.21	91	11	4960	48	692	234	IC50 [12]: 12200 nM; IC50 (JAK1/TYK2 [13]): 385 nM; Papp A→B [2]: 5.6 to 18.8 ×10⁻⁶ cm/s
Cn1cc(Nc2nccc(N3CC4CC[C@H](C3)N4C(=O)NCC(F)(F)F)n2)cn1 (single isomer, unassigned)	1.72	26	15	6870	28	146	14	IC50 [12]: 1160 nM; IC50 (JAK1/TYK2 [13]): 51 nM
